The test system of the experiment is L1210 leukemia ip in BDF1 mice, survival T/C. The experiment is described as follows: NCI In Vivo Anticancer Drug Screen. Data for tumor model L1210 Leukemia (intraperitoneal) in B6D2F1 (BDF1) mice. The following applies: endpoint: mean survival time, higher = longer survival. In a few lines: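 Value reflects the ratio of survival in compound-treated mice to survival in vehicle-treated controls, with both groups carrying the same transplanted tumor.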

Where [1] appears, read: dose: 50.0 mg/kg/injection, schedule: Q01DX009 (ip), vehicle: saline with Tween-80.
Setting [2] is: dose: 100.0 mg/kg/injection, schedule: Q01DX009 (ip), vehicle: saline with Tween-80.
[3] abbreviates: dose: 200.0 mg/kg/injection, schedule: Q01DX009 (ip), vehicle: saline with Tween-80.
Setting [4] is: dose: 100.0 mg/kg/injection, schedule: Q01DX009 (ip), vehicle: Klucel (hydroxypropylcellulose) (HPC).
[5] abbreviates: dose: 200.0 mg/kg/injection, schedule: Q01DX009 (ip), vehicle: Klucel (hydroxypropylcellulose) (HPC).
The mark [6] stands for this setting: dose: 400.0 mg/kg/injection, schedule: Q01DX009 (ip), vehicle: Klucel (hydroxypropylcellulose) (HPC).
Where [7] appears, read: dose: 100.0 mg/kg/injection, schedule: Q04DX003 (ip), vehicle: saline.
The mark [8] stands for this setting: dose: 200.0 mg/kg/injection, schedule: Q04DX003 (ip), vehicle: saline.
[9] abbreviates: dose: 400.0 mg/kg/injection, schedule: Q04DX003 (ip), vehicle: saline.
The mark [10] stands for this setting: dose: 100.0 mg/kg/injection, schedule: Q04DX003 (ip), vehicle: saline with Tween-80.
[11] abbreviates: dose: 200.0 mg/kg/injection, schedule: Q04DX003 (ip), vehicle: saline with Tween-80.
[12] abbreviates: dose: 100.0 mg/kg/injection, schedule: Q01DX001 (ip), vehicle: saline.
Where [13] appears, read: dose: 200.0 mg/kg/injection, schedule: Q01DX001 (ip), vehicle: saline.
The mark [14] stands for this setting: dose: 400.0 mg/kg/injection, schedule: Q01DX001 (ip), vehicle: saline.

Values joined by “and” are separate entries in the source; they are usually repeats but may differ in a detail not shown here. Identical values can stand only once. Toxic doses and inconclusive results are not listed.

With `CC1CC(=O)C(CCC#N)=C(Cl)C1` (stereo not drawn), the T/C runs as follows: under setting [1], 100 % of control; under setting [2], 96 % of control; under setting [3], 96 % of control.
As to `O=c1[nH][nH]c2c1cnc1ccccc12`, the T/C (dose: 50.0 mg/kg/injection, schedule: Q01DX009 (ip), vehicle: Klucel (hydroxypropylcellulose) (HPC)) was 97 % of control; the T/C under setting [4] is 101 % of control; the T/C under setting [5] is 94 % of control.
`Cc1c(C)c(Cl)c(C)c(Cl)c1O`: the T/C runs as follows: under setting [4], 94 % of control; (dose: 100.0 mg/kg/injection, schedule: Q04DX003 (ip), vehicle: Klucel (hydroxypropylcellulose) (HPC)) 98 % of control; under setting [5], 89 % of control; (dose: 200.0 mg/kg/injection, schedule: Q04DX003 (ip), vehicle: Klucel (hydroxypropylcellulose) (HPC)) 93 % of control; under setting [6], 91 % of control; (dose: 400.0 mg/kg/injection, schedule: Q04DX003 (ip), vehicle: Klucel (hydroxypropylcellulose) (HPC)) 105 % of control.
`CCOC(=O)c1c(/N=C/c2ccc3c(c2)OCO3)sc2c1CCCC2`: the T/C is, setting by setting: (dose: 100.0 mg/kg/injection, schedule: Q04DX002 (ip), vehicle: saline with Tween-80) 98 % of control; (dose: 200.0 mg/kg/injection, schedule: Q04DX002 (ip), vehicle: saline with Tween-80) 95 % of control; (dose: 400.0 mg/kg/injection, schedule: Q04DX002 (ip), vehicle: saline with Tween-80) 95 % of control.
Regarding `Cc1ccc(C)c(NC(=O)OCCOc2ccccc2)c1`, the T/C under setting [4] was 101 % of control; the T/C under setting [7] is 103 % of control; the T/C under setting [5] was 90 % of control; the T/C under setting [8] was 104 % of control; the T/C under setting [6] was 91 % of control; the T/C under setting [9] is 101 % of control.
On to `COc1cc(N(CCCl)CCCl)ccc1C=Nc1ccc2c(c1)ncn2C`, for which the T/C by setting is: (dose: 75.0 mg/kg/injection, schedule: Q04DX002 (ip), vehicle: Klucel (hydroxypropylcellulose) (HPC)) 112 % of control; (dose: 150.0 mg/kg/injection, schedule: Q04DX002 (ip), vehicle: Klucel (hydroxypropylcellulose) (HPC)) 101 % of control; (dose: 300.0 mg/kg/injection, schedule: Q04DX002 (ip), vehicle: Klucel (hydroxypropylcellulose) (HPC)) 108 % of control.
In the case of `CN(C)C(=S)SCc1c(O)c(C(C)(C)C)cc2cc(C(C)(C)C)ccc12`, the T/C by setting is: (dose: 100.0 mg/kg/injection, schedule: Q04DX002 (ip), vehicle: Klucel (hydroxypropylcellulose) (HPC)) 105 % of control; (dose: 200.0 mg/kg/injection, schedule: Q04DX002 (ip), vehicle: Klucel (hydroxypropylcellulose) (HPC)) 110 % of control; (dose: 400.0 mg/kg/injection, schedule: Q04DX002 (ip), vehicle: Klucel (hydroxypropylcellulose) (HPC)) 102 % of control.
In the case of `CC1CCC(Oc2nc3c(c(=O)n(C)c(=O)n3C)n2C)CC1` (stereo not drawn), the T/C was 104 % of control and 100 % of control (dose: 50.0 mg/kg/injection, schedule: Q01DX001 (ip), vehicle: other); 101 % of control and 103 % of control (dose: 100.0 mg/kg/injection, schedule: Q01DX001 (ip), vehicle: other); 101 % of control and 92 % of control (dose: 200.0 mg/kg/injection, schedule: Q01DX001 (ip), vehicle: other); 95 % of control (dose: 400.0 mg/kg/injection, schedule: Q01DX001 (ip), vehicle: other).
Consider `CCOc1ccc(N=Nc2c(O)n(-c3ccccc3OC)c(=S)n(-c3ccccc3OC)c2=O)cc1`, for which the T/C is, setting by setting: (dose: 75.0 mg/kg/injection, schedule: Q01DX003 (ip), vehicle: Klucel (hydroxypropylcellulose) (HPC)) 96 % of control; (dose: 100.0 mg/kg/injection, schedule: Q01DX003 (ip), vehicle: Klucel (hydroxypropylcellulose) (HPC)) 96 % of control; (dose: 200.0 mg/kg/injection, schedule: Q01DX003 (ip), vehicle: Klucel (hydroxypropylcellulose) (HPC)) 91 % of control.
Turning to `O=C(NCCCCC(Cl)C(=O)O)c1ccccc1` (stereo not drawn), the T/C by setting is: under setting [10], 100 % of control; under setting [11], 100 % of control; (dose: 400.0 mg/kg/injection, schedule: Q04DX003 (ip), vehicle: saline with Tween-80) 100 % of control.
Consider `Nc1nc(N)c2nc(COc3ccc(C(=O)NC(CCC(=O)O)C(=O)O)cc3)cnc2n1` (stereo not drawn), for which the T/C reads like this: (dose: 0.5 mg/kg/injection, schedule: Q01DX009 (ip), vehicle: sodium bicarbonate) 122 % of control; (dose: 0.8 mg/kg/injection, schedule: Q01DX009 (ip), vehicle: sodium bicarbonate) 122 % of control; (dose: 2.5 mg/kg/injection, schedule: Q01DX009 (ip), vehicle: sodium bicarbonate) 122 % of control; (dose: 5.0 mg/kg/injection, schedule: Q01DX009 (ip), vehicle: sodium bicarbonate) 100 % of control and 90 % of control.
For the compound `O=C1C(N2CCOCC2)=C(c2ccccc2)c2ccccc21`, the T/C runs as follows: (dose: 7.3 mg/kg/injection, schedule: Q01DX009 (ip), vehicle: other) 94 % of control and 103 % of control; (dose: 11.0 mg/kg/injection, schedule: Q01DX009 (ip), vehicle: other) 96 % of control and 100 % of control; (dose: 12.5 mg/kg/injection, schedule: Q01DX009 (ip), vehicle: other) 350 % of control; (dose: 16.5 mg/kg/injection, schedule: Q01DX009 (ip), vehicle: other) 96 % of control and 100 % of control; (dose: 37.5 mg/kg/injection, schedule: Q01DX009 (ip), vehicle: other) 96 % of control and 101 % of control; (dose: 50.0 mg/kg/injection, schedule: Q01DX009 (ip), vehicle: other) 98 % of control. Moreover, the T/C (dose: 100.0 mg/kg/injection, schedule: Q01DX009 (ip), vehicle: other) is 88 % of control and the T/C (dose: 200.0 mg/kg/injection, schedule: Q01DX009 (ip), vehicle: other) is 93 % of control.
As to `CN1CCN(C(CO)Cc2ccccc2)CC1` (stereo not drawn), the T/C under setting [12] was 98 % of control and the T/C under setting [13] is 104 % of control.
As for `O=c1[nH]c(=S)c2ncn(C3OC(CO)C(O)C3O)c2[nH]1` (stereo not drawn), the T/C was 107 % of control under setting [12], 101 % of control under setting [13] and 104 % of control under setting [14].
With `Cc1cc[n+]([O-])cc1`, the T/C under setting [12] was 100 % of control; the T/C (dose: 100.0 mg/kg/injection, schedule: Q01DX009 (ip), vehicle: saline) is 98 % of control; the T/C under setting [7] was 94 % of control; the T/C under setting [13] is 98 % of control; the T/C (dose: 200.0 mg/kg/injection, schedule: Q01DX009 (ip), vehicle: saline) is 101 % of control; the T/C under setting [8] was 102 % of control. The T/C by setting is: under setting [14], 98 % of control; (dose: 400.0 mg/kg/injection, schedule: Q01DX009 (ip), vehicle: saline) 98 % of control; under setting [9], 98 % of control.
Consider `C=CCNC(=S)Nc1ccc(N(C)C)cc1`, for which the T/C by setting is: under setting [1], 94 % of control; under setting [2], 100 % of control; under setting [10], 103 % of control; under setting [3], 103 % of control; under setting [11], 95 % of control.

The record behind these values is PubChem BioAssay AID248 (DTP/NCI, 2004).
